Reference: ChEMBL document CHEMBL3885881, “DrugMatrix”

Species: Rattus norvegicus
Test: DrugMatrix - Regimen: Daily Repeat
Format: toxicity, organism-based, Sprague-Dawley
Set-up: regimen Daily Repeat, gender Male, age 6-8 weeks
Settings: in vivo, po, route oral GAVAGE, vehicle .5 % CMC; for ABSOLUTE BASOPHIL / ABSOLUTE EOSINOPHIL / ABSOLUTE LYMPHOCYTE / ABSOLUTE MONOCYTE / ABSOLUTE SEGMENTED NEUTROPHIL / BASOPHIL / EOSINOPHIL / ERYTHROCYTE COUNT / HEMATOCRIT / HEMOGLOBIN / LEUKOCYTE COUNT / LYMPHOCYTE / MEAN CORPUSCULAR HEMOGLOBIN / MEAN CORPUSCULAR HEMOGLOBIN CONCENTRATION / MEAN CORPUSCULAR VOLUME / MONOCYTE / NEUTROPHIL / NUCLEATED RED BLOOD CELLS / PLATELET COUNT: tissue Blood; for ALANINE AMINOTRANSFERASE / ALBUMIN / ALKALINE PHOSPHATASE / ASPARTATE AMINOTRANSFERASE / BLOOD UREA NITROGEN / CARBON DIOXIDE / CHLORIDE / CHOLESTEROL / CREATINE PHOSPHOKINASE / CREATININE / GLUCOSE / LACTATE DEHYDROGENASE / LIPASE / PHOSPHORUS / POTASSIUM / SODIUM / TOTAL BILIRUBIN / TOTAL PROTEIN / URIC ACID: tissue Plasma
[1] = 0 mg/kg, 72 h, dose level Control, time 3 day
[2] = 0 mg/kg, 120 h, dose level Control, time 5 day
[3] = 15 mg/kg, 72 h, dose level Low, time 3 day

CN1C(=O)CN=C(c2ccccc2)c2cc(Cl)ccc21 [DIAZEPAM]
ABSOLUTE BASOPHIL [1]: 0 CELLS/uL | ABSOLUTE EOSINOPHIL [1]: 0 CELLS/uL | ABSOLUTE LYMPHOCYTE [1]: 12269.67 CELLS/uL | ABSOLUTE MONOCYTE [1]: 160.33 CELLS/uL | ABSOLUTE SEGMENTED NEUTROPHIL [1]: 970 CELLS/uL | BASOPHIL [1]: 0% | EOSINOPHIL [1]: 0% | ERYTHROCYTE COUNT [1]: 5.76 x10E6/uL | HEMATOCRIT [1]: 36.57% | HEMOGLOBIN [1]: 14.22 G/DL | LEUKOCYTE COUNT [1]: 13.4 x10E3/uL | LYMPHOCYTE [1]: 91.67% | MEAN CORPUSCULAR HEMOGLOBIN [1]: 24.67 pg | MEAN CORPUSCULAR HEMOGLOBIN CONCENTRATION [1]: 38.85 G/DL | MEAN CORPUSCULAR VOLUME [1]: 63.52 fL | MONOCYTE [1]: 1.17% | NEUTROPHIL [1]: 7.17% | NUCLEATED RED BLOOD CELLS [1]: 0.33 /100WBC | PLATELET COUNT [1]: 1250.83 x10E3/uL | ALANINE AMINOTRANSFERASE [1]: 49.17 u/L | ALBUMIN [1]: 4.33 G/DL | ALKALINE PHOSPHATASE [1]: 378.5 u/L | ASPARTATE AMINOTRANSFERASE [1]: 82.17 u/L | BLOOD UREA NITROGEN [1]: 15 mg/dL | CARBON DIOXIDE [1]: 34.33 mmol/L | CHLORIDE [1]: 99.17 MEQ/L | CHOLESTEROL [1]: 71.17 mg/dL | CREATINE PHOSPHOKINASE [1]: 258.67 u/L | CREATININE [1]: 0.18 mg/dL | GLUCOSE [1]: 142.67 mg/dL | LACTATE DEHYDROGENASE [1]: 154.33 u/L | LIPASE [1]: 9 u/L | PHOSPHORUS [1]: 11.67 mg/dL | POTASSIUM [1]: 7.13 MEQ/L | SODIUM [1]: 142.22 MEQ/L | TOTAL BILIRUBIN [1]: 0.18 mg/dL | TOTAL PROTEIN [1]: 5.77 G/DL | URIC ACID [1]: 1.55 mg/dL | ABSOLUTE BASOPHIL [2]: 0 CELLS/uL | ABSOLUTE EOSINOPHIL [2]: 23.33 CELLS/uL | ABSOLUTE LYMPHOCYTE [2]: 14943.67 CELLS/uL | ABSOLUTE MONOCYTE [2]: 32 CELLS/uL | ABSOLUTE SEGMENTED NEUTROPHIL [2]: 1084.33 CELLS/uL | BASOPHIL [2]: 0% | EOSINOPHIL [2]: 0.17% | ERYTHROCYTE COUNT [2]: 5.71 x10E6/uL | HEMATOCRIT [2]: 35.28% | HEMOGLOBIN [2]: 14.27 G/DL | LEUKOCYTE COUNT [2]: 16.08 x10E3/uL | LYMPHOCYTE [2]: 93% | MEAN CORPUSCULAR HEMOGLOBIN [2]: 25.02 pg | MEAN CORPUSCULAR HEMOGLOBIN CONCENTRATION [2]: 40.43 G/DL | MEAN CORPUSCULAR VOLUME [2]: 61.82 fL | MONOCYTE [2]: 0.17% | NEUTROPHIL [2]: 6.67% | NUCLEATED RED BLOOD CELLS [2]: 0.33 /100WBC | PLATELET COUNT [2]: 1274 x10E3/uL | ALANINE AMINOTRANSFERASE [2]: 54.17 u/L | ALBUMIN [2]: 4.22 G/DL | ALKALINE PHOSPHATASE [2]: 373.17 u/L | ASPARTATE AMINOTRANSFERASE [2]: 81.83 u/L | BLOOD UREA NITROGEN [2]: 16.67 mg/dL | CARBON DIOXIDE [2]: 30.33 mmol/L | CHLORIDE [2]: 99 MEQ/L | CHOLESTEROL [2]: 71 mg/dL | CREATINE PHOSPHOKINASE [2]: 273.5 u/L | CREATININE [2]: 0.22 mg/dL | GLUCOSE [2]: 141.83 mg/dL | LACTATE DEHYDROGENASE [2]: 153.67 u/L | LIPASE [2]: 10.33 u/L | PHOSPHORUS [2]: 11.38 mg/dL | POTASSIUM [2]: 7.08 MEQ/L | SODIUM [2]: 142.75 MEQ/L | TOTAL BILIRUBIN [2]: 0.18 mg/dL | TOTAL PROTEIN [2]: 6.1 G/DL | URIC ACID [2]: 1.67 mg/dL | ABSOLUTE BASOPHIL [3]: 0 CELLS/uL | ABSOLUTE EOSINOPHIL [3]: 0 CELLS/uL | ABSOLUTE LYMPHOCYTE [3]: 12631.33 CELLS/uL | ABSOLUTE MONOCYTE [3]: 43.67 CELLS/uL | ABSOLUTE SEGMENTED NEUTROPHIL [3]: 1191.67 CELLS/uL | BASOPHIL [3]: 0% | EOSINOPHIL [3]: 0% | ERYTHROCYTE COUNT [3]: 5.07 x10E6/uL | HEMATOCRIT [3]: 32.77% | HEMOGLOBIN [3]: 13.23 G/DL | LEUKOCYTE COUNT [3]: 13.87 x10E3/uL | LYMPHOCYTE [3]: 91% | MEAN CORPUSCULAR HEMOGLOBIN [3]: 26.23 pg | MEAN CORPUSCULAR HEMOGLOBIN CONCENTRATION [3]: 40.4 G/DL | MEAN CORPUSCULAR VOLUME [3]: 64.77 fL | MONOCYTE [3]: 0.33% | NEUTROPHIL [3]: 8.67% | NUCLEATED RED BLOOD CELLS [3]: 0 /100WBC | PLATELET COUNT [3]: 1275.67 x10E3/uL | ALANINE AMINOTRANSFERASE [3]: 54 u/L | ALBUMIN [3]: 4.07 G/DL | ALKALINE PHOSPHATASE [3]: 332.67 u/L | ASPARTATE AMINOTRANSFERASE [3]: 79.33 u/L | BLOOD UREA NITROGEN [3]: 16.67 mg/dL | CARBON DIOXIDE [3]: 27 mmol/L | CHLORIDE [3]: 101.67 MEQ/L | CHOLESTEROL [3]: 72.67 mg/dL | CREATINE PHOSPHOKINASE [3]: 227.67 u/L | CREATININE [3]: 0.25 mg/dL | GLUCOSE [3]: 180 mg/dL | LACTATE DEHYDROGENASE [3]: 173.33 u/L | LIPASE [3]: 9 u/L | PHOSPHORUS [3]: 13.13 mg/dL | POTASSIUM [3]: 7.43 MEQ/L | SODIUM [3]: 143.37 MEQ/L | TOTAL BILIRUBIN [3]: 0.2 mg/dL | TOTAL PROTEIN [3]: 5.57 G/DL | URIC ACID [3]: 1.97 mg/dL
